# Laboratory results reported in patent US20160272953A1, “Activated Sugars” (ZuChem, Inc., priority 2010, published 2016).
# Columns and labels:
# [1] = system: Sugar-1-kinase-P and nucleotidyltransferase-S; experiment: One-pot coupled sugar-1-kinase / nucleotidyltransferase reaction (TLC); type: biochemical; settings: for conversion to dTDP-sugar, estimated by TLC: dTTP 8 mM as nucleotide donor
# Description: (§1) Initial coupling of the reaction was tested for 1-pot synthesis of NDP-sugars. The reaction was started with 12 mM ATP, 3.5 mM MgCl2, and 8 mM of either L-Glucose or D-galactose. Partially purified Sugar-1-kinase-P was added to the mixture and a sample was taken at 0 and 60 minutes. After 60 minutes, dTTP or UTP (8 mM), 20 μL nucleotidyltransferase-S, and 2 μL of commercially available thermostable pyrophosphatase were added to the reaction and samples were taken at different time points and analyzed by TLC as shown in FIG. 7-1. […] Upon addition of the second enzyme and nucleotide, the formation of dTDP-D-galactose and dTDP-L-glucose began. The sugar nucleotides were more clearly visualized by UV, but can also been seen in the KMnO4 stained TLC plates in FIG. 6-1.
# The conversion is estimated to be greater than 80% based on the loss of Gal-1-P and appearance of dTDP-Gal on TLC. The reaction with L-glucose and dTTP was also successful, however, the conversion was lower and estimated to be 20% by TLC.
# [2] = molecular target: T1, wild-type P. furiosus enzyme (Pyrococcus furiosus, UniProt Q9HHB6); experiment: GalK activity by ATP to ADP conversion (HPLC), wild-type enzyme; type: biochemical; settings: 200 mM sugar, 100 mM ATP, 1 ug/ml enzyme, 60° C., 20 hours
# T1 construct: 6-His (N); made in house; host or cells: E. coli
# T1 sequence (Q9HHB6 whole entry): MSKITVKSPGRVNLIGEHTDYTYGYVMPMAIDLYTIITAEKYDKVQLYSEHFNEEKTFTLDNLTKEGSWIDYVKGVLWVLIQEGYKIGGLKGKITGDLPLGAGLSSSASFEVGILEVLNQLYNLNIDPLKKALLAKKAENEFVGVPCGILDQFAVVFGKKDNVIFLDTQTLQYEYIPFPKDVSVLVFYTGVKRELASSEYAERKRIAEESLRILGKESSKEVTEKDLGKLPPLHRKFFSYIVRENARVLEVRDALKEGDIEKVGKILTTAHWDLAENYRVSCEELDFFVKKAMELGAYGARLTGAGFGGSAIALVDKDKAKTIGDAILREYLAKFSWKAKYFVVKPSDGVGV
# Description: The reaction of sugars with the wild type and mutant sugar-1-kinse such as those from Pyrococcus furiousus can also be monitored by following ATP consumption in the reaction. The amount of ATP consumption directly correlates with the amount of sugar-1-kinase produced. For example, to produce additional sugar-1-phosphates a series of experiments were carried out as follows, In a reaction mix containing 50 mM sodium phosphate buffer at pH 7.5, 100 mM ATP, 200 mM of the sugar being tested, 5mM MgC12 either 1 ug/ml of either the PK27 mutant or wild-type P. furiosus enzyme were added. The reaction was incubated at 60° C. for 20 hours. ATP and ADP concentrations were analyzed by HPLC using a Supelcosil LC-18-T column with a flow rate of 1.0 mL/min of 0.05 M. KH2P04/4 mM tetrabutylammonium hydrogen sulfate and a linear gradient solvent program of 0-30% methanol over 30 min. The percent conversion of ATP to ADP was calculated. Sugar-1-phosphate was analyzed by HPLC using Supelcosil LC-SAX column 0.05 M K-phosphate buffer, pH 6.0
# GalK activity by ATp to ADp conversion, 20 h. Percentages indicate degree reaction proceeded to completion within 20 hours.
# Sugar-1-kinase-P = experiment: One-pot reaction, first step: phosphorylation by Sugar-1-kinase-P (DNS assay, TLC); type: biochemical, Pyrococcus furiosus; settings: 8 mM sugar, 12 mM ATP, first 60 minutes
# Description: as §1
# nucleotidyltransferase-S = experiment: Nucleotidyltransferase-S activity with Gal-1-P and dTTP (TLC and malachite green); type: biochemical, Streptococcus thermophilus; settings: 7 mM Gal-1-P, 7 mM dTTP, 0.1 U pyrophosphatase
# Description: The nucleotidyltransferase-S enzyme was chosen for further study due to its high expression in E. coli. Nucleotidyltransferase activity was measured with the commercially available substrate D-galactose-1-phosphate (Gal-1-P). This is not the natural substrate of homologous nucleotidyltransferases, which is D-glucose-1-phosphate. Nucleotidyltransferase-S was incubated with 7 mM Gal-1-P, 7 mM dTTP, and 0.1 U of pyrophosphatase. The reaction was monitored by two different methods. […] The second method of assay was a malachite green based inorganic phosphate assay. When dTTP is coupled to a Sugar-1-phosphate it releases pyrophosphate which is broken down to pyrophosphatase to 2 molecules of inorganic phosphate.
# EP-P = experiment: Nucleotidylyltransferase substrate specificity by TLC, EP-P; type: biochemical, Pyrococcus furiosus; settings: UTP, 90° C., 6 mM substrate
# Text: (§2) A fourth nucleotidlylytransferaseenzyme has been cloned from P. furiousus (EP-P2) that has previously been shown capable of converting the only commercially available L-sugar-1-phosphate (L-fucose-1-P),[47] transferring 82% to produce UDP-L-Fucose as determined by ESI-MS. EP-P2 additionally has a broad activity range on 6 other D-sugar-1-phosphates. This enzyme was cloned as a His-tag fusion and purified by IMAC. Since we had 4 different enzymes (EP-S, EP-T, EP-P, and EP-P2) with different characteristics and substrate specificities, experiments were designed to test the substrate specificities on purified nucleotidlylytransferase enzyme and pure substrates. Reactions with each of the 4 nucleotidlylytransferase enzymes were set up using 4 different sugar-1-phosphates and 2 different nucleotides (32 reactions total), with each enzyme incubated near its optimal temperature. […] Samples were taken at the time of enzyme addition and every hour for three hours and then analyzed by TLC using 80% aqueous acetonitrile +10 mM TBAHS; visualized by UV and stained in KMnO4.
# (§3) The UV visible spots were circled in black for FIG. 6-3 to aid in visualization as only the nucleotides and nucleotide-activated sugars are UV active. […] Furthermore, many of the reactions proceeded to completion by the first time point analyzed.
# EP-S = experiment: Nucleotidylyltransferase substrate specificity by TLC, EP-S; type: biochemical, Streptococcus thermophilus; settings: UTP, 45° C., 6 mM substrate
# Text: as §2, §3
# EP-T = experiment: Nucleotidylyltransferase substrate specificity by TLC, EP-T; type: biochemical, Thermus thermophilus; settings: 65° C., 6 mM substrate
# Text: as §2, §3
# EP-P2 [3] = experiment: Nucleotidylyltransferase substrate specificity by TLC, EP-P2; type: biochemical, P. furiousus; settings: 90° C., 6 mM substrate
# Text: A fourth nucleotidlylytransferaseenzyme has been cloned from P. furiousus (EP-P2) that has previously been shown capable of converting the only commercially available L-sugar-1-phosphate (L-fucose-1-P),[47] transferring 82% to produce UDP-L-Fucose as determined by ESI-MS. EP-P2 additionally has a broad activity range on 6 other D-sugar-1-phosphates. This enzyme was cloned as a His-tag fusion and purified by IMAC. Since we had 4 different enzymes (EP-S, EP-T, EP-P, and EP-P2) with different characteristics and substrate specificities, experiments were designed to test the substrate specificities on purified nucleotidlylytransferase enzyme and pure substrates. Reactions with each of the 4 nucleotidlylytransferase enzymes were set up using 4 different sugar-1-phosphates and 2 different nucleotides (32 reactions total), with each enzyme incubated near its optimal temperature. In a total volume of 200 μL the reactions contained 25 μL of purified enzyme, 5 mM MgCl2, 6 mM nucleotide, 6 mM sugar-1-phosphate, 4 U thermophilic pyrophosphatase (commercially available). The 4 sugar-1-phosphates were D-glucose-1-phosphate, L-glucose-1-phosphate, D-galactose-1-phosphate, and D-mannose-1-phosphate, while the 2 nucleotides chosen were dTTP and UTP. EP-P and EP-P2 were incubated at 90° C., EP-T at 65° C., and EP-S at 45° C. Samples were taken at the time of enzyme addition and every hour for three hours and then analyzed by TLC using 80% aqueous acetonitrile +10 mM TBAHS; visualized by UV and stained in KMnO4.
# The UV visible spots were circled in black for FIG. 6-3 to aid in visualization as only the nucleotides and nucleotide-activated sugars are UV active. The upper left plates show TLC of standard compounds. […] To our knowledge these are the first examples of commercially viable dTDP-L-glucose enzymatic production. […] EP-S had good activity on both D-glu-1P and D-mann-1P. EP-P and EP-T both were only active on D-glucose-1P with UTP as the nucleotide. […] Furthermore, many of the reactions proceeded to completion by the first time point analyzed.
# E. coli GalKMLYH = molecular target: T2, E. coli GalKMLYH (Escherichia coli, UniProt P0A6T3, D325E/M173L/Y371H); experiment: GalKMLYH conversion of L-sugars at 16° C.; type: biochemical; settings: 5 hrs of incubation, partially purified cell extract
# T2 construct: made in house; host or cells: E. coli
# Description: The GalKMLYH enzyme was finally tested at 16° C. for the conversion of several other L-sugars using partially purified cell extract from the overexpressing E. coli strain and typical reaction conditions.
# EP-P2 [4] = settings: determined by ESI-MS; cited from earlier work
# WT Sugar-1-kinase-P = molecular target: T3, WT Sugar-1-kinase-P (Pyrococcus furiosus, UniProt Q9HHB6); experiment: Substrate specificity of purified WT Sugar-1-kinase-P (DNS assay); type: biochemical; settings: 8 mM sugar, 2.4 mg/ml enzyme, 12 mM ATP, 5 mM MgCl2, pH 7.5 phosphate buffer
# T3 construct: 6-His (N); made in house; host or cells: E. coli
# T3 sequence (Q9HHB6 whole entry): as above
# Description: Often, when applying protein engineering to activity on a new substrate the resulting enzyme has relaxed substrate specificity which we wanted to achieve. The purified Sugar-1-kinase-PK27 was then tested for the conversion of a variety of sugars and compared to purified WT Sugar-1-kinase-P. The reactions were setup with 8 mM of different sugars (L-ribose, L-galactose, L-glucose, L-arabinose, L-xylose, L-rhamnose, L-mannose, L-gulose, L-fucose, and 6-Azido-D-galactose), 2.4 mg/ml enzyme, 12 mM ATP, and 5 mM MgCl2 in pH 7.5 phosphate buffer. Samples were taken every hour and analyzed by DNS assay (FIG. 4-5A).
# Sugar-1-kinase-S = experiment: Time course conversion of alternative substrates by Sugar-1-kinase-S; type: biochemical, Streptococcus thermophilus; settings: 45° C., ~300 minutes, partially purified cell extract
# [5] = molecular target: engineered E. coli GalKMLYH (Escherichia coli, UniProt P0A6T3, D325E/M173L/Y371H); settings: substrate 1.5 g/L, purified enzyme 0.6 g/L; cited from earlier work
smiles,measurement,setting,value
O=C[C@H](O)[C@@H](O)[C@@H](O)[C@H](O)CO [D-Galactose],"conversion to dTDP-sugar, estimated by TLC",[1],greater than 80%
same,"degree reaction proceeded to completion (ATP to ADP conversion), WT Pyrococcus furiosus",[2],90%
same,conversion to sugar-1-phosphate,Sugar-1-kinase-P,completely converted
C[C@@H](O)[C@H](O)[C@H](O)[C@@H](O)C=O [D-fucose],"degree reaction proceeded to completion (ATP to ADP conversion), WT Pyrococcus furiosus",[2],78%
O=P(O)(O)O[C@H]1O[C@H](CO)[C@H](O)[C@H](O)[C@H]1O [D-galactose-1-phosphate],activity with substrate,nucleotidyltransferase-S,active
"O=P(O)(O)O[C@H]1O[C@H](CO)[C@@H](O)[C@H](O)[C@H]1O [D-glu-1P, D-glucose-1-phosphate]",activity on sugar-1-phosphate,EP-P,only active
same,activity on sugar-1-phosphate,EP-S,good activity
same,activity on sugar-1-phosphate,EP-T; UTP,only active
same,activity on sugar-1-phosphate,EP-T; dTTP,converted
same,activity on sugar-1-phosphate,EP-P2 [3]; dTTP,showed activity
"O=P(O)(O)O[C@H]1O[C@H](CO)[C@@H](O)[C@H](O)[C@@H]1O [D-mannose-1P, D-mannose-1-phosphate]",activity on sugar-1-phosphate,EP-S,good activity
same,activity on sugar-1-phosphate,EP-P2 [3]; dTTP,showed activity
O=C[C@@H](O)[C@@H](O)[C@H](O)[C@H](O)CO [D-mannose],"degree reaction proceeded to completion (ATP to ADP conversion), WT Pyrococcus furiosus",[2],54%
O=C[C@H](O)[C@@H](O)[C@H](O)CO [D-xylose],"degree reaction proceeded to completion (ATP to ADP conversion), WT Pyrococcus furiosus",[2],50%
O=C[C@H](O)[C@@H](O)[C@@H](O)CO [L-arabinose],activity of GalK mutant on substrate,E. coli GalKMLYH,did not display significant activity
C[C@@H]1O[C@H](OP(=O)(O)O)[C@@H](O)[C@H](O)[C@@H]1O [L-fucose-1-P],transfer to UDP-L-Fucose,EP-P2 [4],82%
C[C@H](O)[C@@H](O)[C@@H](O)[C@H](O)C=O [L-fucose],activity of GalK mutant on substrate,E. coli GalKMLYH,did not display significant activity
same,"degree reaction proceeded to completion (ATP to ADP conversion), WT Pyrococcus furiosus",[2],40%
"O=P(O)(O)OC1OC(CO)C(O)C(O)C1O [L-glu-1P, L-glucose-1-phosphate]",activity on sugar-1-phosphate,EP-P2 [3]; UTP,did not appear to appreciably convert
same,activity on sugar-1-phosphate,EP-P2 [3]; dTTP,showed activity
O=C[C@@H](O)[C@H](O)[C@@H](O)[C@@H](O)CO [L-glucose],"conversion to dTDP-sugar, estimated by TLC",[1],~20%
same,activity of GalK mutant on substrate,E. coli GalKMLYH,did not display significant activity
same,activity on sugar,WT Sugar-1-kinase-P,displayed activity
same,reaction completion,Sugar-1-kinase-S,95-100%
same,conversion to sugar-1-phosphate,Sugar-1-kinase-P,completely converted
same,conversion to 1-phosphate,[5],25%
O=C[C@@H](O)[C@@H](O)[C@H](O)[C@@H](O)CO [L-gulose],activity of GalK mutant on substrate,E. coli GalKMLYH,did not display significant activity
O=C[C@H](O)[C@H](O)[C@@H](O)[C@@H](O)CO [L-mannose],activity of GalK mutant on substrate,E. coli GalKMLYH,did not display significant activity
C[C@H](O)[C@H](O)[C@@H](O)[C@@H](O)C=O [L-rhamnose],activity of GalK mutant on substrate,E. coli GalKMLYH,did not display significant activity
O=C[C@@H](O)[C@@H](O)[C@@H](O)CO [L-ribose],activity of GalK mutant on substrate,E. coli GalKMLYH,did not display significant activity
O=C[C@@H](O)[C@H](O)[C@@H](O)CO [L-xylose],activity of GalK mutant on substrate,E. coli GalKMLYH,did not display significant activity
O=c1ccn([C@@H]2O[C@H](COP(=O)(O)OP(=O)(O)OP(=O)(O)O)[C@@H](O)[C@H]2O)c(=O)[nH]1 [UTP],outcome as alternative nucleotide donor,"[1]; 8 mM, one-pot coupled reaction",did not result in a successfully coupled reaction
